# Assay results taken from patent publication US10954246B2, “Compound of EOC315 Mod.I crystal form and preparation method thereof” (Taizhou EOC Pharma Co., Ltd., priority 2017, dated 2021).
# Structures can show the parent of a compound that is named as a salt.
# Assay: Stability evaluation under accelerated condition (40° C., RH 75%)
# Type: physicochemical
# Procedure: Long-term stability over twelve months was evaluated at 25° C. and a relative humidity of 60%; or accelerated stability over six months was evaluated at 40° C. and a relative humidity of 75%.
# [1] = Month 0, limit 0.10%, listed as 151211
# [2] = Month 0, limit 0.10%, listed as 151212
# [3] = Month 0, limit 0.10%, listed as 151213
# [4] = Month 1, limit 0.10%, listed as 151211
# [5] = Month 1, limit 0.10%, listed as 151212
# [6] = Month 1, limit 0.10%, listed as 151213
# [7] = Month 1, limit 0.17%, listed as 151211
# [8] = Month 1, limit 0.17%, listed as 151212
# [9] = Month 1, limit 0.17%, listed as 151213
# [10] = Month 2, limit 0.10%, listed as 151211
# [11] = Month 2, limit 0.10%, listed as 151212
# [12] = Month 2, limit 0.10%, listed as 151213
# [13] = Month 2, limit 0.17%, listed as 151211
# [14] = Month 2, limit 0.17%, listed as 151212
# [15] = Month 2, limit 0.17%, listed as 151213
# [16] = Month 3, limit 0.10%, listed as 151211
# [17] = Month 3, limit 0.10%, listed as 151212
# [18] = Month 3, limit 0.10%, listed as 151213
# [19] = Month 6, limit 0.10%, listed as 151211
# [20] = Month 6, limit 0.10%, listed as 151212
# [21] = Month 6, limit 0.10%, listed as 151213
# [22] = Month 6, limit 0.17%, listed as 151211
# [23] = Month 6, limit 0.17%, listed as 151212
# [24] = Month 6, limit 0.17%, listed as 151213
smiles,measurement,setting,value
"CNC(=O)c1cc(OCc2nnc(Nc3ccc(Cl)cc3)c3ccoc23)ccn1 [EOC315 crystalline form Mod. I, 4-(4-chloroanilino)-7-(2-methylaminocarbonyl-4-oxymethyl)pyridylfuro[2,3-d]pyridazine mesylate]",Related substance Impurity 5,[1],0.02%
same,Related substance Impurity 6,[1],0.01%
same,Related substance Impurity 5,[2],0.01%
same,Related substance Impurity 6,[2],Undetected
same,Related substance Impurity 5,[3],Undetected
same,Related substance Impurity 6,[3],Undetected
same,Related substance Maximum single impurity,"Month 0, limit 0.15%, listed as 151211",0.0079%
same,Related substance Maximum single impurity,"Month 0, limit 0.15%, listed as 151212",0.012%
same,Related substance Maximum single impurity,"Month 0, limit 0.15%, listed as 151213",0.0085%
same,Related substance Impurity 1,"Month 0, limit 0.17%",Undetected
same,Related substance Impurity 2,"Month 0, limit 0.17%",Undetected
same,Related substance Impurity 3,"Month 0, limit 0.17%, listed as 151211",0.016%
same,Related substance Impurity 3,"Month 0, limit 0.17%, listed as 151212",0.011%
same,Related substance Impurity 3,"Month 0, limit 0.17%, listed as 151213",0.011%
same,Related substance Total impurity,"Month 0, limit 1.0%, listed as 151211",0.53%
same,Related substance Total impurity,"Month 0, limit 1.0%, listed as 151212",0.66%
same,Related substance Total impurity,"Month 0, limit 1.0%, listed as 151213",0.52%
same,Related substance Impurity 4,"Month 0, limit 3.0%, listed as 151211",0.36%
same,Related substance Impurity 4,"Month 0, limit 3.0%, listed as 151212",0.46%
same,Related substance Impurity 4,"Month 0, limit 3.0%, listed as 151213",0.35%
same,Crystalline form,"Month 0, limit ModI",ModI
same,Related substance Impurity 5,[4],Undetected
same,Related substance Impurity 6,[4],0.01%
same,Related substance Impurity 5,[5],0.01%
same,Related substance Impurity 6,[5],Undetected
same,Related substance Impurity 5,[6],0.01%
same,Related substance Impurity 6,[6],Undetected
same,Related substance Maximum single impurity,"Month 1, limit 0.15%, listed as 151211",0.011%
same,Related substance Maximum single impurity,"Month 1, limit 0.15%, listed as 151212",Undetected
same,Related substance Maximum single impurity,"Month 1, limit 0.15%, listed as 151213",0.0077%
same,Related substance Impurity 1,"Month 1, limit 0.17%",Undetected
same,Related substance Impurity 2,[7],0.0031%
same,Related substance Impurity 3,[7],0.0040%
same,Related substance Impurity 2,[8],0.0026%
same,Related substance Impurity 3,[8],0.0037%
same,Related substance Impurity 2,[9],Undetected
same,Related substance Impurity 3,[9],0.0035%
same,Related substance Total impurity,"Month 1, limit 1.0%, listed as 151211",0.5%
same,Related substance Total impurity,"Month 1, limit 1.0%, listed as 151212",0.6%
same,Related substance Total impurity,"Month 1, limit 1.0%, listed as 151213",0.5%
same,Related substance Impurity 4,"Month 1, limit 3.0%, listed as 151211",0.4%
same,Related substance Impurity 4,"Month 1, limit 3.0%, listed as 151212",0.5%
same,Related substance Impurity 4,"Month 1, limit 3.0%, listed as 151213",0.3%
same,Related substance Impurity 5,[10],Undetected
same,Related substance Impurity 6,[10],0.01%
same,Related substance Impurity 5,[11],0.02%
same,Related substance Impurity 6,[11],Undetected
same,Related substance Impurity 5,[12],Undetected
same,Related substance Impurity 6,[12],Undetected
same,Related substance Maximum single impurity,"Month 2, limit 0.15%, listed as 151211",0.0045%
same,Related substance Maximum single impurity,"Month 2, limit 0.15%, listed as 151212",0.0062%
same,Related substance Maximum single impurity,"Month 2, limit 0.15%, listed as 151213",0.0067%
same,Related substance Impurity 1,"Month 2, limit 0.17%",Undetected
same,Related substance Impurity 2,[13],Undetected
same,Related substance Impurity 3,[13],0.0013%
same,Related substance Impurity 2,[14],0.0036%
same,Related substance Impurity 3,[14],0.0070%
same,Related substance Impurity 2,[15],0.0035%
same,Related substance Impurity 3,[15],0.014%
same,Related substance Total impurity,"Month 2, limit 1.0%, listed as 151211",0.6%
same,Related substance Total impurity,"Month 2, limit 1.0%, listed as 151212",0.7%
same,Related substance Total impurity,"Month 2, limit 1.0%, listed as 151213",0.6%
same,Related substance Impurity 4,"Month 2, limit 3.0%, listed as 151211",0.4%
same,Related substance Impurity 4,"Month 2, limit 3.0%, listed as 151212",0.5%
same,Related substance Impurity 4,"Month 2, limit 3.0%, listed as 151213",0.4%
same,Related substance Impurity 5,[16],0.01%
same,Related substance Impurity 6,[16],0.02%
same,Related substance Impurity 5,[17],0.01%
same,Related substance Impurity 6,[17],Undetected
same,Related substance Impurity 5,[18],Undetected
same,Related substance Impurity 6,[18],0.01% d
same,Related substance Maximum single impurity,"Month 3, limit 0.15%",Undetected
same,Related substance Impurity 1,"Month 3, limit 0.17%",Undetected
same,Related substance Impurity 2,"Month 3, limit 0.17%",Undetected
same,Related substance Impurity 3,"Month 3, limit 0.17%",Undetected
same,Related substance Total impurity,"Month 3, limit 1.0%, listed as 151211",0.5%
same,Related substance Total impurity,"Month 3, limit 1.0%, listed as 151212",0.6%
same,Related substance Total impurity,"Month 3, limit 1.0%, listed as 151213",0.5%
same,Related substance Impurity 4,"Month 3, limit 3.0%, listed as 151211",0.4%
same,Related substance Impurity 4,"Month 3, limit 3.0%, listed as 151212",0.5%
same,Related substance Impurity 4,"Month 3, limit 3.0%, listed as 151213",0.37%
same,Related substance Impurity 5,[19],0.01%
same,Related substance Impurity 6,[19],0.01%
same,Related substance Impurity 5,[20],0.01%
same,Related substance Impurity 6,[20],Undetected
same,Related substance Impurity 5,[21],Undetected
same,Related substance Impurity 6,[21],Undetected
same,Related substance Maximum single impurity,"Month 6, limit 0.15%, listed as 151211",0.030%
same,Related substance Maximum single impurity,"Month 6, limit 0.15%, listed as 151212",0.032%
same,Related substance Maximum single impurity,"Month 6, limit 0.15%, listed as 151213",0.029%
same,Related substance Impurity 1,"Month 6, limit 0.17%",Undetected
same,Related substance Impurity 2,[22],0.0061%
same,Related substance Impurity 3,[22],0.045%
same,Related substance Impurity 2,[23],0.0043%
same,Related substance Impurity 3,[23],0.044%
same,Related substance Impurity 2,[24],0.045%
same,Related substance Impurity 3,[24],0.060%
same,Related substance Total impurity,"Month 6, limit 1.0%, listed as 151211",0.7%
same,Related substance Total impurity,"Month 6, limit 1.0%, listed as 151212",0.8%
same,Related substance Total impurity,"Month 6, limit 1.0%, listed as 151213",0.7%
same,Related substance Impurity 4,"Month 6, limit 3.0%, listed as 151211",0.4%
same,Related substance Impurity 4,"Month 6, limit 3.0%, listed as 151212",0.5%
same,Related substance Impurity 4,"Month 6, limit 3.0%, listed as 151213",0.4%
same,Crystalline form,"Month 6, limit ModI",ModI
